Test results: ChEMBL document CHEMBL3217497, “Design, synthesis and antiproliferative activity of indole analogues of indanocine” (2013)

Legend:
Format in all cases: functional
[1] = Cytotoxicity against human OVCAR5 cells assessed as growth inhibition; conditions: OVCAR-5
[2] = Cytotoxicity against human EKVX cells assessed as growth inhibition
[3] = Cytotoxicity against human UACC62 cells assessed as growth inhibition; conditions: UACC-62
[4] = test system: KM12; assay: Cytotoxicity against human KM12 cells assessed as growth inhibition
[5] = test system: HT-29; assay: Cytotoxicity against human HT-29 cells assessed as growth inhibition
[6] = test system: T47D; assay: Cytotoxicity against human T47D cells assessed as growth inhibition
[7] = test system: RXF 393; assay: Cytotoxicity against human RXF393 cells assessed as growth inhibition
[8] = test system: HOP-62; assay: Cytotoxicity against human HOP62 cells assessed as growth inhibition
[9] = test system: ACHN; assay: Cytotoxicity against human ACHN cells assessed as growth inhibition
[10] = test system: SK-MEL-2; assay: Cytotoxicity against human SK-MEL-2 cells assessed as growth inhibition
[11] = test system: SF-268; assay: Cytotoxicity against human SF268 cells assessed as growth inhibition
[12] = test system: SK-MEL-28; assay: Cytotoxicity against human SK-MEL-28 cells assessed as growth inhibition
[13] = test system: MOLT-4; assay: Cytotoxicity against human MOLT4 cells assessed as growth inhibition
[14] = test system: BT-549; assay: Cytotoxicity against human BT549 cells assessed as growth inhibition
[15] = test system: SW-620; assay: Cytotoxicity against human SW620 cells assessed as growth inhibition
[16] = test system: SN12C; assay: Cytotoxicity against human SN12C cells assessed as growth inhibition
[17] = Cytotoxicity against human NCI-ADR-RES cells assessed as growth inhibition
[18] = Cytotoxicity against human OVCAR8 cells assessed as growth inhibition; conditions: OVCAR-8
[19] = test system: HCC 2998; assay: Cytotoxicity against human HCC2998 cells assessed as growth inhibition
[20] = Cytotoxicity against human HCT15 cells assessed as growth inhibition; conditions: HCT-15
[21] = test system: MDA-MB-468; assay: Cytotoxicity against human MDA-MB-468 cells assessed as growth inhibition
[22] = test system: MDA-MB-231; assay: Cytotoxicity against human MDA-MB-231 cells assessed as growth inhibition
[23] = test system: SK-OV-3; assay: Cytotoxicity against human SKOV3 cells assessed as growth inhibition
[24] = test system: SR; assay: Cytotoxicity against human SR cells assessed as growth inhibition
[25] = test system: SNB-19; assay: Cytotoxicity against human SNB19 cells assessed as growth inhibition
[26] = test system: RPMI-8226; assay: Cytotoxicity against human RPMI8226 cells assessed as growth inhibition
[27] = test system: Malme-3M; assay: Cytotoxicity against human MALME-3M cells assessed as growth inhibition
[28] = test system: COLO 205; assay: Cytotoxicity against human COLO205 cells assessed as growth inhibition
[29] = test system: IGROV-1; assay: Cytotoxicity against human IGROV1 cells assessed as growth inhibition
[30] = test system: M14; assay: Cytotoxicity against human M14 cells assessed as growth inhibition
[31] = test system: U-251; assay: Cytotoxicity against human U251 cells assessed as growth inhibition
[32] = test system: SNB-75; assay: Cytotoxicity against human SNB75 cells assessed as growth inhibition
[33] = test system: SK-MEL-5; assay: Cytotoxicity against human SK-MEL-5 cells assessed as growth inhibition
[34] = test system: MDA-MB-435; assay: Cytotoxicity against human MDA-MB-435 cells assessed as growth inhibition
[35] = test system: K562; assay: Cytotoxicity against human K562 cells assessed as growth inhibition
[36] = Cytotoxicity against human OVCAR4 cells assessed as growth inhibition; conditions: OVCAR-4
[37] = test system: A498; assay: Cytotoxicity against human A498 cells assessed as growth inhibition
[38] = Cytotoxicity against human UACC257 cells assessed as growth inhibition; conditions: UACC-257
[39] = test system: SF-295; assay: Cytotoxicity against human SF295 cells assessed as growth inhibition
[40] = test system: PC-3; assay: Cytotoxicity against human PC3 cells assessed as growth inhibition
[41] = test system: CAKI-1; assay: Cytotoxicity against human CAKI-1 cells assessed as growth inhibition
[42] = Cytotoxicity against human UO31 cells assessed as growth inhibition; conditions: UO-31
[43] = test system: HL-60(TB); assay: Cytotoxicity against human HL-60(TB) cells assessed as growth inhibition
[44] = test system: 786-0; assay: Cytotoxicity against human 786-0 cells assessed as growth inhibition
[45] = test system: SF-539; assay: Cytotoxicity against human SF539 cells assessed as growth inhibition
[46] = test system: TK-10; assay: Cytotoxicity against human TK10 cells assessed as growth inhibition
[47] = test system: NCI-H322M; assay: Cytotoxicity against human NCI-H322M cells assessed as growth inhibition
[48] = Cytotoxicity against human OVCAR3 cells assessed as growth inhibition; conditions: OVCAR-3
[49] = test system: NCI-H460; assay: Cytotoxicity against human NCI-H460 cells assessed as growth inhibition
[50] = test system: LOX IMVI; assay: Cytotoxicity against human LOXIMVI cells assessed as growth inhibition
[51] = test system: NCI-H23; assay: Cytotoxicity against human NCI-H23 cells assessed as growth inhibition
[52] = test system: A549; assay: Cytotoxicity against human A549 cells assessed as growth inhibition
[53] = test system: DU-145; assay: Cytotoxicity against human DU145 cells assessed as growth inhibition
[54] = test system: HOP-92; assay: Cytotoxicity against human HOP92 cells assessed as growth inhibition
[55] = test system: NCI-H226; assay: Cytotoxicity against human NCI-H226 cells assessed as growth inhibition
[56] = test system: CCRF-CEM; assay: Cytotoxicity against human CCRF-CEM cells assessed as growth inhibition
[57] = test system: MCF7; assay: Cytotoxicity against human MCF7 cells assessed as growth inhibition
[58] = test system: HCT-116; assay: Cytotoxicity against human HCT116 cells assessed as growth inhibition
[59] = Cytotoxicity against human Hs 578T cells assessed as growth inhibition
[60] = test system: NCI-H522; assay: Cytotoxicity against human NCI-H522 cells assessed as growth inhibition

In the case of `Cc1cc(/C=C2\CCc3c(n(C)c4ccccc34)C2=O)cc(C)c1O`, the GI50 [1] was 5100 nM, the GI50 [2] was 4840 nM and the GI50 [3] was 410 nM. The GI50 [4] was 450 nM, the GI50 [5] was 4180 nM and the GI50 [6] was 2060 nM. It also gave a GI50 [7] of 1080 nM, a GI50 [8] of 720 nM and a GI50 [9] of 830 nM. It also gave a GI50 [10] of 330 nM, a GI50 [11] of 720 nM and a GI50 [12] of 640 nM. For the same compound, the GI50 [13] was 800 nM, the GI50 [14] was 2840 nM and the GI50 [15] was 430 nM. For the same compound, the GI50 [16] was 720 nM, the GI50 [17] was 340 nM and the GI50 [18] was 920 nM. For the same compound, the GI50 [19] was 3610 nM, the GI50 [20] was 510 nM and the GI50 [21] was 310 nM. It also gave a GI50 [22] of 1060 nM, a GI50 [23] of 1520 nM and a GI50 [24] of 340 nM. The GI50 [25] was 630 nM, the GI50 [26] was 760 nM and the GI50 [27] was 450 nM. For the same compound, the GI50 [28] was 22900 nM, the GI50 [29] was 1590 nM and the GI50 [30] was 390 nM. For the same compound, the GI50 [31] was 540 nM, the GI50 [32] was 410 nM and the GI50 [33] was 410 nM. The GI50 [34] was 160 nM, the GI50 [35] was 330 nM and the GI50 [36] was 3870 nM. For the same compound, the GI50 [37] was 3390 nM, the GI50 [38] was 5830 nM and the GI50 [39] was 1480 nM. The GI50 [40] was 2490 nM, the GI50 [41] was 840 nM and the GI50 [42] was 730 nM. It also gave a GI50 [43] of 340 nM, a GI50 [44] of 3250 nM and a GI50 [45] of 700 nM. The GI50 [46] was 1080 nM, the GI50 [47] was 2730 nM and the GI50 [48] was 350 nM. The GI50 [49] was 390 nM, the GI50 [50] was 700 nM and the GI50 [51] was 2530 nM. It also gave a GI50 [52] of 740 nM, a GI50 [53] of 1850 nM and a GI50 [54] of 6560 nM. It also gave a GI50 [55] of 4380 nM, a GI50 [56] of 740 nM and a GI50 [57] of 370 nM. It also gave a GI50 [58] of 390 nM, a GI50 [59] of 730 nM and a GI50 [60] of 140 nM.
`Cc1cc(/C=C2\Cc3c([nH]c4ccccc34)C2=O)cc(C)c1O` gave a GI50 [1] of 11100 nM, a GI50 [2] of 2590 nM and a GI50 [3] of 4570 nM. For the same compound, the GI50 [4] was 460 nM, the GI50 [5] was 15800 nM and the GI50 [6] was 12600 nM. It also gave a GI50 [7] of 1430 nM, a GI50 [8] of 650 nM and a GI50 [10] of 400 nM. For the same compound, the GI50 [11] was 860 nM, the GI50 [12] was 730 nM and the GI50 [13] was 6010 nM. The GI50 [15] was 410 nM, the GI50 [16] was 620 nM and the GI50 [17] was 350 nM. For the same compound, the GI50 [18] was 990 nM, the GI50 [19] was 7490 nM and the GI50 [20] was 560 nM. It also gave a GI50 [21] of 2430 nM, a GI50 [22] of 3190 nM and a GI50 [23] of 730 nM. For the same compound, the GI50 [24] was 390 nM, the GI50 [25] was 710 nM and the GI50 [26] was 670 nM. It also gave a GI50 [27] of 310 nM, a GI50 [28] of 19500 nM and a GI50 [29] of 3540 nM. It also gave a GI50 [30] of 410 nM, a GI50 [31] of 1120 nM and a GI50 [32] of 290 nM. For the same compound, the GI50 [33] was 390 nM, the GI50 [34] was 160 nM and the GI50 [35] was 330 nM. The GI50 [36] was 10200 nM, the GI50 [37] was 4860 nM and the GI50 [38] was 26100 nM. For the same compound, the GI50 [39] was 2780 nM, the GI50 [40] was 3570 nM and the GI50 [41] was 1400 nM. For the same compound, the GI50 [42] was 320 nM, the GI50 [43] was 340 nM and the GI50 [44] was 5960 nM. For the same compound, the GI50 [45] was 550 nM, the GI50 [46] was 6270 nM and the GI50 [47] was 10400 nM. It also gave a GI50 [48] of 510 nM, a GI50 [49] of 420 nM and a GI50 [50] of 690 nM. It also gave a GI50 [51] of 1790 nM, a GI50 [52] of 1580 nM and a GI50 [53] of 2050 nM. The GI50 [54] was 7470 nM, the GI50 [55] was 9600 nM and the GI50 [56] was 2180 nM. For the same compound, the GI50 [57] was 700 nM, the GI50 [58] was 500 nM and the GI50 [59] was 550 nM. For the same compound, the GI50 [60] was 90 nM.
